Data reported in patent US5079260A, “Method for treating inflammation and compounds and compositions suitable for use therein” (Nova Pharmaceutical Corporation, priority 1990, dated 1992).

Experiments:
[1] = tested on: Ear Edema Caused By Tetradecanoylphorbol Acetate; test: Inhibition of Ear Edema Caused by Tetradecanoylphorbol Acetate (II), Table 7; type: in vivo, CF-1 Mice; details: i.p., 3 h
[2] = tested on: Ear Edema Caused by Arachidonic Acid; test: Inhibition of Ear Edema Caused by Arachidonic Acid (II), Table 8; type: in vivo, CF-1 mice; details: i.p., sixty minutes
Summary of the method: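 CF-1 mice (25-30 g, six/group) dosed intraperitoneally with compound in DMSO or 0.5% methylcellulose 30 min before topical arachidonic acid (100 mg/mL in ethanol, both ear surfaces).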

[3] = tested on: Ear Edema Caused by Xylene; test: Inhibition of Ear Edema Caused by Xylene (II), Table 9; type: in vivo, CF-1 mice; details: i.p., 2 h
Summary of the method: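 CF-1 mice (25-30 g, six per group) received compound i.p. in DMSO or 0.5% methylcellulose 30 min before xylene was applied to both ear surfaces. Ear thickness was measured by micrometer 2 h later. Values are percent inhibition of the increase in ear thickness versus irritant-only controls.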

[4] = tested on: Ear Edema Caused by Oxazolone; test: Inhibition of Ear Edema Caused by Oxazolone (II), Table 10; type: in vivo, CF-1 mice; details: i.p., 24 h
[5] = tested on: Reverse Passive Artus Reaction; test: Reverse Passive Artus Reaction (II), Table 11; type: in vivo, Male CD rats; details: inhibition of blueing; i.p., 100 mg/kg
[6] = tested on: Adjuvant Induced Fibrinogen; test: Adjuvant Arthritis: Inhibition of Adjuvant Induced Fibrinogen, Table 12; type: in vivo, Male Sprague Dawley rats; details: i.p., 100 mg/kg, day 3
[7] = tested on: Ear Edema Caused by Xylene; test: Inhibition of Ear Edema Caused by Xylene (I), Table 3; type: in vivo, CF-1 Mice; details: 2 h
Text: (§1) Such inflammatory agents typically include tetradecanoylphorbolacetate, arachidonic acid, xylene, capsaicin, oxazolone, carrageenan and the like. The reverse passive Arthus test offers another measure of the compound's utility in preventing an inflammatory response (Chang et al, Eur. J. Pharm. 69:155-164 (1981)). Test compounds are typically administered intraperitoneally or topically. For intraperitoneal administration, the test compound can be given in dimethyl sulfoxide or in 0.5% methylcellulose 30 minutes prior to administration of the irritant. For topical administration, the test compound can be dissolved in, for example, acetone, ethanol or dimethyl sulfoxide and applied about 15 minutes prior to application of the irritant. Results can be expressed as the percent decrease in swelling in the compound-treated animals as compared to control animals that receive only the irritant.
Inhibition of Ear Edema Caused by Xylene (I)
CF-1 Mice, 25-30 g body weight, six animals per group, were used. Test compounds (compounds of Formula I where X is oxygen, R3, R4, A and B are hydrogen and Q is as indicated in Table 3) were administered intraperitoneally (100 mg/kg) or topically as follows. For intraperitoneal administration, the test compound was dissolved in DMSO or 0.5% methylcellulose and 100 μl was injected 30 minutes prior to irritant. For topical administration, test compound was dissolved in either acetone, ethanol or dimethyl sulfoxide and 5 μl (10 μg) applied to the upper surface (1 cm^2) of the ear and an additional 5 μl (10 μg) applied to the lower surface (1 cm^2) of the ear fifteen minutes prior to application of the irritant. The irritant, xylene, was added to the surface of the ear, 20 μl added to the upper surface and 20 μl to the lower surface. After two hours, the thickness of the ear was measured to 0.01 mm by a micrometer with loose drag positioned at the lateral-most edge of the mid-point of the pinna. Data were calculated as the inhibition by the test compound of increased ear thickness compared to that of control animals receiving only the irritant.

[8] = tested on: Ear Edema Caused by Capsaicin; test: Inhibition of Ear Edema Caused by Capsaicin, Table 4; type: in vivo, CF-1 Mice
Text: as §1
Inhibition of Ear Edema Caused by Capsaicin
CF-1 Mice, 25-30 g body weight, six animals per group, were used. […] After thirty minutes, the thickness of the ear was measured to 0.01 mm by a micrometer with loose drag positioned at the lateral-most edge of the mid-point of the pinna. Data were calculated as the inhibition by the test compound of increased ear thickness compared to control animals receiving only the irritant.

[9] = tested on: Ear Edema Caused by Tetradecanoylphorbolacetate; test: Inhibition of Ear Edema Caused by Tetradecanoylphorbolacetate (I), Table 1; type: in vivo, CF-1 Mice
Text: as §1
Inhibition of Ear Edema Caused by Tetradecanoylphorbolacetate (I)
CF-1 Mice, 25-30 g body weight, six animals per group, were used. Test compounds (compounds of Formula I where X is oxygen, R3, R4, A and B are hydrogen and Q is as indicated in Table 1) were administered intraperitoneally (100 mg/kg) or topically as follows. For intraperitoneal administration, the test compound was dissolved in dimethyl sulfoxide or 0.5% methylcellulose and 100 μl was injected 30 minutes prior to irritant (100 mg/kg, i.p.). For topical administration, the test compound was dissolved in either acetone, ethanol or dimethyl sulfoxide and 5 μl (100 μg) applied to the upper surface (1 cm^2) of the ear and an additional 5 μl (100 μg) applied to the lower surface (1 cm^2) of the ear fifteen minutes prior to application of the irritant. A solution of the irritant, tetradecanoylphorbolacetate, 200 μg/ml, was added to the surface of the ear, 5 μl added to the upper surface and 5 μl to the lower surface. After three hours, the thickness of the ear was measured to 0.01 mm by a micrometer with loose drag positioned at the lateral-most edge of the mid-point of the pinna. Data were calculated as the inhibition by the test compound of increased ear thickness compared to control animals receiving only the irritant.

[10] = tested on: Ear Edema Caused by Arachidonic Acid; test: Inhibition of Ear Edema Caused by Arachidonic Acid (I), Table 2; type: in vivo, CF-1 Mice; details: i.p., 100 mg/kg; ear thickness at sixty minutes
Text: as §1
Inhibition of Ear Edema Caused by Arachidonic Acid (I)
CF-1 Mice, 25-30 g body weight, six animals per group, were used. Test compounds (compounds of Formula I where X is oxygen, R3, R4, A and B are hydrogen and Q is as indicated in Table 2) were administered intraperitoneally (100 mg/kg) as follows. For intraperitoneal administration, test compound was dissolved in DMSO or 0.5% methylcellulose and 100 μl was injected 30 minutes prior to i.p. administration of 100 mg/kg of arachidonic acid. A solution of the irritant, arachidonic acid, 100 mg/ml in ethanol, was added to the surface of the ear, 5 μl added to the upper surface and 5 μl to the lower surface. After sixty minutes, the thickness of the ear was measured to 0.01 mm by a micrometer with loose drag positioned at the lateral-most edge of the mid-point of the pinna. Data were calculated as the percent inhibition by the test compound of increased ear thickness compared to control animals receiving only the irritant.

[11] = tested on: Ear Edema Caused by Oxazolone; test: Inhibition of Ear Edema Caused by Oxazolone (I), Table 5; type: in vivo, CF-1 Mice; details: i.p., 100 mg/kg, 30 min before irritant; sensitized mice; 24 h
Text: as §1
Inhibition of Ear Edema Caused by Oxazolone (I)
CF-1 Mice, 25-30 g body weight, six animals per group, were used. The mice were sensitized to the irritant two weeks prior to the test by dribbling 100 μl of a 3% solution of oxazolone in acetone onto the abdominal skin of the animal. Test compounds (compounds of Formula I where X is oxygen, R3, R4, A and B are hydrogen and Q is as indicated in Table 5) were administered intraperitoneally as follows. The test compound was dissolved in DMSO or 0.5% methylcellulose and 100 μl (100 mg/kg) was injected 30 minutes prior to irritant. The irritant, 3% oxazolone in acetone, was added to the surface of the ear, 5 μl added to the upper surface and 5 μl to the lower surface. After twenty four hours, the thickness of the ear was measured to 0.01 mm by a micrometer with loose drag positioned at the lateral-most edge of the mid-point of the pinna. Data were calculated as the inhibition by the test compound of increased ear thickness compared to control animals receiving only the irritant.

[12] = tested on: Reverse Passive Artus Reaction; test: Reverse Passive Artus Reaction (I), Table 6; type: in vivo, Male CD rats; details: inhibition of blueing; i.p., 100 mg/kg, one hour before antigen
Text: as §1
Reverse Passive Artus Reaction (I)
Male CD rats weighing between 200 and 250 g were used. Test compounds (compounds of Formula I where X is oxygen, R3, R4, A and B are hydrogen and Q is as indicated in Table 6) were dissolved in dimethyl sulfoxide and 200 μl of this solution (100 mg/kg) were injected intraperitoneally one hour before administration of the antigen. The animals were anesthetized inhalationally with isoflurane and then were injected through the penile vein with 1 ml of a solution of 2.5 mg of Evan's blue dye and 5.0 mg of human serum albumin in 1 ml of saline. This treatment was followed immediately by intracutaneous injections of 0.03 ml of anti-human albumin diluted to contain 3.65 mg of antibody at 3 sites along the midline back. Anesthesia was terminated and after three hours the animals were sacrificed. The skin was removed and the blue stained areas cut out. […] The tube contents were agitated and centrifuged, and the absorbance of the supernatant liquid was measured at 620 nm. The data were calculated as inhibition of blueing by test compound compared to control animals receiving only antigen and antibody.

[13] = tested on: Ear Edema Caused by Arachidonic Acid; test: Inhibition of Ear Edema Caused by Arachidonic Acid (I), Table 2; type: in vivo, CF-1 Mice; details: dose not given in Example 4, sixty minutes

Molecule | % Inhibition Intraperitoneal ([1]; 10 mg/kg) [%] | % Inhibition Intraperitoneal ([1]; 30 mg/kg) [%] | % Inhibition Intraperitoneal ([1]; 100 mg/kg) [%] | % Inhibition Intraperitoneal ([2]; 10 mg/kg) [%] | % Inhibition Intraperitoneal ([2]; 30 mg/kg) [%] | % Inhibition Intraperitoneal ([2]; 100 mg/kg) [%] | % Inhibition ([3]; 10 mg/kg) [%] | % Inhibition ([3]; 30 mg/kg) [%] | % Inhibition ([3]; 100 mg/kg) [%] | % Inhibition Intraperitoneal ([4]; 10 mg/kg) [%] | % Inhibition Intraperitoneal ([4]; 30 mg/kg) [%] | % Inhibition Intraperitoneal ([4]; 100 mg/kg) [%] | % Inhibition Intraperitoneal [5] [%] | % Inhibition [6] [%] | also measured
CC(C)C[C@H](NC(=O)OCC1c2ccccc2-c2ccccc21)C(N)=O [NPC 15528, N-[(9H-Fluoren-9-ylmethoxy)carbonyl]-L-leucine Amide] | 61 | 64 | 75 | 31 | 32 | 35 | 20 | 27 | 39 | 41 | 25 | 46 | 0 | 0 | –
D-Pro^2 -D-Trp^7.9 -Substance P [reference compound] | – | – | – | – | – | – | – | – | – | – | – | – | – | – | % Inhibition Intraperitoneal ([7]; Reference Standard, 100 μg/ear): 44%; % Inhibition Intraperitoneal ([8]; Reference Standard, 100 μg/ear, thirty minutes): 34%
CC(C)C[C@H](NC(=O)OCC1c2ccccc2-c2ccccc21)C(=O)O [L-Leucine, N-[(9H-Fluoren-9-ylmethoxy)carbonyl]-L-leucine] | – | – | – | – | – | – | – | – | – | – | – | – | – | – | % Inhibition Intraperitoneal ([9]; i.p., 100 mg/kg, 30 min before irritant, ear thickness at 3 h): 54%; % Inhibition, topical ([9]; topical, 100 μg upper + 100 μg lower ear surface, 15 min before irritant, 3 h): 41%; % Inhibition Intraperitoneal [10]: 62%; % Inhibition Intraperitoneal ([7]; i.p., 100 mg/kg, 30 min before irritant): 47%; % Inhibition, topical ([7]; topical, 10 μg upper + 10 μg lower ear surface, 15 min before irritant): 66%; % Inhibition Intraperitoneal ([8]; i.p., 100 mg/kg, 30 min before irritant, ear thickness at thirty minutes): 74%; % Inhibition Intraperitoneal [11]: 58%; % Inhibition Intraperitoneal [12]: 48%; % Inhibition, topical [13]: 41%
CC(C)C[C@H](NC(=O)OCC1c2ccccc2-c2cc3ccccc3cc21)C(=O)O (stereo partly drawn) [NPC 15510, N-[9H-(2,3-Benzofluoren-9-ylmethoxy)carbonyl]-L-leucine] | 48 | 70 | 70 | -24 | 69 | 67 | 40 | 40 | 49 | -7 | 3 | 101 | 50 | 35 | –
